In one experiment the target is T1, PI3Kα (Homo sapiens, UniProt P42336).
T1 construct: purchased Millipore 14-602-K
Briefly: In vitro test of enzyme activity (ADP-Glo lipokinase), PI3K alpha. Format: biochemical. The conditions noted are these: 40 μM ATP, 50 μM PIP2:3PS, 120 min. Background: In ADP-Glo the light output rises with the ADP produced.

For the next experiment, the target named is T2, PI3Kδ (Homo sapiens, UniProt O00329).
T2 construct: purchased Millipore 14-604-K
Put plainly: In vitro test of enzyme activity (ADP-Glo lipokinase), PI3K delta. Format: biochemical. The conditions noted are these: 40 μM ATP, 50 μM PIP2:3PS, 120 min.

Experiment [1] concerns human ovarian cancer SK-OV-3 cells. Put plainly: Subcutaneous xenograft tumor model of human ovarian cancer SK-OV-3 cells. It counts as in vivo, BALB/c nude mouse. The conditions noted are these: SK-OV-3 xenograft, 30 mpk. Here is the method: (2) BALB/c nude mouse subcutaneous xenograft tumor model of human ovarian cancer SK-OV-3 cells
Human ovarian cancer SK-OV-3 cells (ECACC-91091004) were subjected to in vitro monolayer culture, and the culture conditions were: McCoy's 5a medium (Gibco, 16600-082) with 10% fetal bovine serum and 100 U/mL penicillin and 100 µg/mL streptomycin, 37° C. and 5% CO2 incubator. The cells were passaged by digestion with trypsin-EDTA twice a week. When the cells saturation reached 80%-90%, the cells were collected, counted, and inoculated.
0.2 mL of 10×10^6 SK-OV-3 cells were subcutaneously inoculated into the right back of each nude mouse (PBS:Matrigel=1:1). When the average tumor volume reached 200 mm^3, 48 tumor-bearing mice were divided into 8 groups by stratified random method with 6 mice in each group, which were administered on the day of grouping.
Preparation of Test Substance
Vehicle group: 2.0 g of methyl cellulose was weighed in a 500 mL glass bottle, followed by addition of 399.2 mL of ddH2O and 0.8 mL of Tween 80. […]
The experimental index was to evaluate whether the tumor growth was inhibited, delayed or cured. The diameter of the tumor was measured with a vernier caliper twice a week. […]
The antitumor efficacy of the compound was evaluated by TGI (%) or relative tumor proliferation rate T/C (%). […]

From US20200317660A1, “Quinazolinone Compound and Application Thereof” (LUOXIN PHARMACEUTICAL (SHANGHAI) CO., LTD., priority 2017, published 2020) come the findings set out here.

T2 sequence (O00329 whole entry): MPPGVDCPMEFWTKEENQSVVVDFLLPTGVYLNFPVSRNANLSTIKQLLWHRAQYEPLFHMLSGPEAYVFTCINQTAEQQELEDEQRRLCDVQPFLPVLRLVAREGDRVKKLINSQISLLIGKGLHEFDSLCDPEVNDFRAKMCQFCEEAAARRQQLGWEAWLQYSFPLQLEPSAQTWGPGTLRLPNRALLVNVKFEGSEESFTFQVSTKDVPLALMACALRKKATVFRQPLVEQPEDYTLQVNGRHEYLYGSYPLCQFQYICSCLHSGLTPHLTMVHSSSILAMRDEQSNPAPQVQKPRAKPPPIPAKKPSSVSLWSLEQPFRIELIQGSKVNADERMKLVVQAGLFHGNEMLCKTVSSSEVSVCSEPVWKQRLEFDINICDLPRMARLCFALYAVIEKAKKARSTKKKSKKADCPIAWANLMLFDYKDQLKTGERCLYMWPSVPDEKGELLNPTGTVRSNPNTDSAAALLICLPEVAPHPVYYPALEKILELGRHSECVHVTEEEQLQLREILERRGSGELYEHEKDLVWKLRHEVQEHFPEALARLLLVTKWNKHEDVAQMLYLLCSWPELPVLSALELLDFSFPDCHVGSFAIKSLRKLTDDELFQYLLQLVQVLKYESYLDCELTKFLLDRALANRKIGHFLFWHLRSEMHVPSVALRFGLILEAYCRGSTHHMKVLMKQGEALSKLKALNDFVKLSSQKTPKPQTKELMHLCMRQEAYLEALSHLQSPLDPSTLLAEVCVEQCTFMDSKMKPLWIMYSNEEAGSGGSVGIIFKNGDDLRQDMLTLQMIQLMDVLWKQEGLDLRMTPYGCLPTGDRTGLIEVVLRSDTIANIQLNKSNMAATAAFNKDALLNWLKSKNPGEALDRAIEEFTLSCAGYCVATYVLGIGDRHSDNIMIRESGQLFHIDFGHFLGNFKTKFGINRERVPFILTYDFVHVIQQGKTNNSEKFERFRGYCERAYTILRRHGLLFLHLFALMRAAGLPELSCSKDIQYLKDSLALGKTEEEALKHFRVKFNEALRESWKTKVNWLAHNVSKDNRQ
T2 sequence (P27986 whole entry partner): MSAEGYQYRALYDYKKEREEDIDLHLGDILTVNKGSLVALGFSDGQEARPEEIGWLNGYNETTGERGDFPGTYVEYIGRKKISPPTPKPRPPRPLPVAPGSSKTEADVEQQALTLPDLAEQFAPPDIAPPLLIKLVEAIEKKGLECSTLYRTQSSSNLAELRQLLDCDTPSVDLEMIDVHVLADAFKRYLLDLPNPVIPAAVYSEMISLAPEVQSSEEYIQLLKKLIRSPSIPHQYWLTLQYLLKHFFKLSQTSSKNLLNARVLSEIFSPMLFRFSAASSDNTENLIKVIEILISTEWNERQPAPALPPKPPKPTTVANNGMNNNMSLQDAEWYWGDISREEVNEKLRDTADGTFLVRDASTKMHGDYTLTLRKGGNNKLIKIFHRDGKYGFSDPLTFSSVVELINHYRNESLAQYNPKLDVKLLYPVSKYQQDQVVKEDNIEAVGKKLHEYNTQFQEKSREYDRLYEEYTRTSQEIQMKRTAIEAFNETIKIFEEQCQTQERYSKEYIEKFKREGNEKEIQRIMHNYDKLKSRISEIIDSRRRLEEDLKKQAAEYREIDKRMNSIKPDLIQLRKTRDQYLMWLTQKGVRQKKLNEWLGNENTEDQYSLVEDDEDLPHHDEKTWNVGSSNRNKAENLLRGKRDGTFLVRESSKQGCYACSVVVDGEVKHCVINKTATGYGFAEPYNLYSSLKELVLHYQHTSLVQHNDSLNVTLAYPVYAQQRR
T1 sequence (P42336 whole entry): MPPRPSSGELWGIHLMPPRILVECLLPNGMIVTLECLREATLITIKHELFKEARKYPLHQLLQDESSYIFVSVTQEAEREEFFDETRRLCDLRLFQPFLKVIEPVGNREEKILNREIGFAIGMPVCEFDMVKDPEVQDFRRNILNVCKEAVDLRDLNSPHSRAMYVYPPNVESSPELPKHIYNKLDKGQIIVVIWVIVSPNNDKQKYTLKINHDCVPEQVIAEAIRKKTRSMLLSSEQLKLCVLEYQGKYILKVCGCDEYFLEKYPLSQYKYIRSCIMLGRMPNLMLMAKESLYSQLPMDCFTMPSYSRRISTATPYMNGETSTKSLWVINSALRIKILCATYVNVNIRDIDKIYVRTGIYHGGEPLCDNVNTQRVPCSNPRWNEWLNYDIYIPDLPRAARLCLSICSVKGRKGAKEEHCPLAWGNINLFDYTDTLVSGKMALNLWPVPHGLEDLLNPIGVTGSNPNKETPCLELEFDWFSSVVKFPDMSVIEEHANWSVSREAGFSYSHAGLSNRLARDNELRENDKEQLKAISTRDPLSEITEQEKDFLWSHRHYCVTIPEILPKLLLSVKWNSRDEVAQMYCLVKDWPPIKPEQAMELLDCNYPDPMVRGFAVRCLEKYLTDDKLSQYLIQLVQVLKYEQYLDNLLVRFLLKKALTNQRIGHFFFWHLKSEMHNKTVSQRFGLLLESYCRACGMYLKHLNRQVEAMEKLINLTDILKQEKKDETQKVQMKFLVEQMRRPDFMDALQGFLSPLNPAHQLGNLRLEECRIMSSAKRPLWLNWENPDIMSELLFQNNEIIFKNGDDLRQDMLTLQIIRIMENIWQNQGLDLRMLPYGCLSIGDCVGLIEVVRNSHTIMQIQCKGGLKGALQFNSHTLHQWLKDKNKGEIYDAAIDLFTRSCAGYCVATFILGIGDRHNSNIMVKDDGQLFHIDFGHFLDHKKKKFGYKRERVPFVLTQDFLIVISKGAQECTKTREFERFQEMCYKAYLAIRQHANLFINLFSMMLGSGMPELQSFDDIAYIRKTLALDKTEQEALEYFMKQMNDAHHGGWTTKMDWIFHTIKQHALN
T1 sequence (P27986 whole entry partner): as the sequence (P27986 whole entry partner) above

As for `CNC(=O)CCCn1cnc2ccc(-c3cnc(OC)c(NS(=O)(=O)c4ccc(F)cc4Cl)c3)cc2c1=O` [WX198], the half-inhibitory concentration (IC50) at PI3Kα came out at 1.1 nM; at PI3Kδ, 2.1 nM. In addition, the TGI % in experiment [1] is recorded as 62.6%.

For orientation: IC50 means the concentration that gives 50% inhibition. Read a low IC50 as greater potency.
